Data from PubChem BioAssay AID256 (DTP/NCI, 2004).
Values joined by “and” are separate entries in the source; they are usually repeats but may differ in a detail not shown here. Equal values may be shown once. Toxic doses and inconclusive results are not listed. Rule for the calls: active = survival T/C of 150% or more; inactive = T/C below 125% in these data.

System: CD2F1 mice, L1210 leukemia ip, survival T/C
Test: NCI In Vivo Anticancer Drug Screen. Data for tumor model L1210 Leukemia (intraperitoneal) in CD2F1 (CDF1) mice
Conditions: endpoint: mean survival time, higher = longer survival
In short: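 Antitumor effect is scored in animals hosting a serially transplanted tumor. Values compare compound-dosed animals against vehicle-only controls as a simple quotient.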

[1] = dose: 100.0 mg/kg/injection, schedule: Q01DX001 (ip), vehicle: saline
[2] = dose: 200.0 mg/kg/injection, schedule: Q01DX001 (ip), vehicle: saline
[3] = dose: 25.0 mg/kg/injection, schedule: Q01DX009 (ip), vehicle: saline with Tween-80
[4] = dose: 50.0 mg/kg/injection, schedule: Q01DX009 (ip), vehicle: saline with Tween-80
[5] = dose: 100.0 mg/kg/injection, schedule: Q01DX009 (ip), vehicle: saline with Tween-80
[6] = dose: 100.0 mg/kg/injection, schedule: Q04DX003 (ip), vehicle: saline with Tween-80
[7] = dose: 200.0 mg/kg/injection, schedule: Q04DX003 (ip), vehicle: saline with Tween-80
[8] = dose: 400.0 mg/kg/injection, schedule: Q04DX003 (ip), vehicle: saline with Tween-80
[9] = dose: 200.0 mg/kg/injection, schedule: Q01DX009 (ip), vehicle: saline with Tween-80
[10] = dose: 400.0 mg/kg/injection, schedule: Q01DX009 (ip), vehicle: saline with Tween-80
[11] = dose: 100.0 mg/kg/injection, schedule: Q04DX002 (ip), vehicle: saline with Tween-80
[12] = dose: 200.0 mg/kg/injection, schedule: Q04DX002 (ip), vehicle: saline with Tween-80
[13] = dose: 100.0 mg/kg/injection, schedule: Q01DX009 (ip), vehicle: other
[14] = dose: 200.0 mg/kg/injection, schedule: Q01DX009 (ip), vehicle: other
[15] = dose: 400.0 mg/kg/injection, schedule: Q01DX009 (ip), vehicle: other

Measured: T/C

CC12CCC(O)CC1CCC1C2CCC2(C)C(C3=CC(=O)OC3)CCC12 (configuration not stated)
inactive: dose: 50.0 mg/kg/injection, schedule: Q01DX001 (ip), vehicle: saline 96 % of control | [1] 98 % of control | [2] 98 % of control

O=C(C=P(CC[PH+](Cc1ccccc1)Cc1ccccc1)(Cc1ccccc1)Cc1ccccc1)c1ccccc1.[Cl][Pd][Cl]
inactive: dose: 3.13 mg/kg/injection, schedule: Q04DX003 (ip), vehicle: distilled water + Tween-80 98 % of control | dose: 6.25 mg/kg/injection, schedule: Q04DX003 (ip), vehicle: distilled water + Tween-80 100 % of control | dose: 12.5 mg/kg/injection, schedule: Q04DX003 (ip), vehicle: distilled water + Tween-80 104 % of control | dose: 25.0 mg/kg/injection, schedule: Q04DX003 (ip), vehicle: distilled water + Tween-80 102 % of control | dose: 50.0 mg/kg/injection, schedule: Q04DX003 (ip), vehicle: distilled water + Tween-80 96 % of control | dose: 100.0 mg/kg/injection, schedule: Q04DX003 (ip), vehicle: distilled water + Tween-80 96 % of control | dose: 200.0 mg/kg/injection, schedule: Q04DX003 (ip), vehicle: distilled water + Tween-80 96 % of control

Cc1ccc(Cl)c2ccccc12
inactive: dose: 12.5 mg/kg/injection, schedule: Q01DX009 (ip), vehicle: saline with Tween-80 97 % of control | [3] 100 % of control | [4] 97 % of control | [5] 94 % of control

CC(C)(C)CC(C)(C)c1ccc(OCCOc2ccc(CC(=S)N3CCOCC3)cc2)cc1
inactive: dose: 100.0 mg/kg/injection, schedule: Q01DX009 (ip), vehicle: Klucel (hydroxypropylcellulose) (HPC) 96 % of control | [6] 93 % of control | dose: 200.0 mg/kg/injection, schedule: Q01DX009 (ip), vehicle: Klucel (hydroxypropylcellulose) (HPC) 95 % of control | [7] 95 % of control | dose: 400.0 mg/kg/injection, schedule: Q01DX009 (ip), vehicle: Klucel (hydroxypropylcellulose) (HPC) 98 % of control | [8] 87 % of control

C=CCCCCCCCCC(=O)NCC1CC1
inactive: [5] 94 % of control | [9] 100 % of control | [10] 86 % of control

N#CCCCC1(CCCC#N)OCCO1
inactive: dose: 50.0 mg/kg/injection, schedule: Q04DX003 (ip), vehicle: saline 100 % of control | dose: 100.0 mg/kg/injection, schedule: Q04DX003 (ip), vehicle: saline 102 % of control | dose: 200.0 mg/kg/injection, schedule: Q04DX003 (ip), vehicle: saline 107 % of control

O=C(c1cc2c3ccccc3ccc2c2ccccc12)C(Br)Br
inactive: [3] 106 % of control | [4] 103 % of control | [5] 100 % of control | [6] 93 % of control

NN=C1c2ccccc2-c2ccccc21
inactive: [6] 94 % of control | [7] 86 % of control | [8] 96 % of control

COC(=O)c1ccccc1NC1OC(CO)C(O)C1O (configuration not stated)
inactive: [1] 101 % of control | [2] 92 % of control | dose: 400.0 mg/kg/injection, schedule: Q01DX001 (ip), vehicle: saline 91 % of control

CCOc1cccc(Cc2c[nH]c(=O)[nH]c2=O)c1
inactive: dose: 100.0 mg/kg/injection, schedule: Q01DX001 (ip), vehicle: saline with Tween-80 90 % of control | dose: 200.0 mg/kg/injection, schedule: Q01DX001 (ip), vehicle: saline with Tween-80 100 % of control | dose: 400.0 mg/kg/injection, schedule: Q01DX001 (ip), vehicle: saline with Tween-80 89 % of control

O=C1OC(=O)C2CCCC3CCCC1C32 (configuration not stated)
inactive: [11] 108 % of control | [12] 108 % of control

CCCCCCCCCCCCCCCCCC[N+]1(C)CCOCC1
inactive: dose: 6.25 mg/kg/injection, schedule: Q04DX002 (ip), vehicle: Klucel (hydroxypropylcellulose) (HPC) 95 % of control | dose: 12.5 mg/kg/injection, schedule: Q04DX002 (ip), vehicle: Klucel (hydroxypropylcellulose) (HPC) 91 % of control | dose: 25.0 mg/kg/injection, schedule: Q04DX002 (ip), vehicle: Klucel (hydroxypropylcellulose) (HPC) 90 % of control and 98 % of control | dose: 100.0 mg/kg/injection, schedule: Q04DX002 (ip), vehicle: Klucel (hydroxypropylcellulose) (HPC) 101 % of control

Clc1ccc(N=C/C=C/c2ccccc2)cc1
inactive: dose: 25.0 mg/kg/injection, schedule: Q01DX009 (ip), vehicle: other 101 % of control | dose: 50.0 mg/kg/injection, schedule: Q01DX009 (ip), vehicle: other 97 % of control | [13] 95 % of control | dose: 100.0 mg/kg/injection, schedule: Q04DX003 (ip), vehicle: other 87 % of control | dose: 400.0 mg/kg/injection, schedule: Q04DX003 (ip), vehicle: other 89 % of control

O=C(c1ccccc1)C1OC1c1ccccc1 (configuration not stated)
inactive: [5] 93 % of control | [6] 101 % of control | [9] 94 % of control | [7] 98 % of control | [10] 94 % of control | [8] 101 % of control

C=CCCCCC(=O)c1ccccc1
inactive: dose: 50.0 mg/kg/injection, schedule: Q04DX002 (ip), vehicle: saline with Tween-80 100 % of control | [11] 93 % of control | [12] 104 % of control

CCCCOP(=O)(NCCOC)OCCCC
inactive: [6] 101 % of control | [7] 100 % of control | [8] 103 % of control

c1ccc(N=C2CCCCC2)cc1
inactive: dose: 100.0 mg/kg/injection, schedule: Q01DX001 (ip), vehicle: other 115 % of control | dose: 100.0 mg/kg/injection, schedule: Q01DX001 (ip), vehicle: saline + Tween-80 + alcohol 98 % of control | dose: 200.0 mg/kg/injection, schedule: Q01DX001 (ip), vehicle: other 93 % of control | dose: 200.0 mg/kg/injection, schedule: Q01DX001 (ip), vehicle: saline + Tween-80 + alcohol 102 % of control | dose: 400.0 mg/kg/injection, schedule: Q01DX001 (ip), vehicle: other 120 % of control | dose: 400.0 mg/kg/injection, schedule: Q01DX001 (ip), vehicle: saline + Tween-80 + alcohol 103 % of control | dose: 600.0 mg/kg/injection, schedule: Q01DX001 (ip), vehicle: saline + Tween-80 + alcohol 105 % of control

O=C1NC(=O)C(c2ccccc2)(c2ccc(O)cc2)N1 (configuration not stated)
inactive: [5] 105 % of control | dose: 100.0 mg/kg/injection, schedule: Q04DX003 (ip), vehicle: saline sonified 95 % of control | [9] 95 % of control | dose: 200.0 mg/kg/injection, schedule: Q04DX003 (ip), vehicle: saline sonified 93 % of control | [10] 95 % of control | dose: 400.0 mg/kg/injection, schedule: Q04DX003 (ip), vehicle: saline sonified 93 % of control

CC(=O)NNC(=O)c1ccccc1N=NN(C)C
inactive: dose: 18.75 mg/kg/injection, schedule: Q01DX009 (ip), vehicle: Klucel (hydroxypropylcellulose) (HPC) 94 % of control and 100 % of control | dose: 37.5 mg/kg/injection, schedule: Q01DX009 (ip), vehicle: Klucel (hydroxypropylcellulose) (HPC) 102 % of control and 111 % of control | dose: 75.0 mg/kg/injection, schedule: Q01DX009 (ip), vehicle: Klucel (hydroxypropylcellulose) (HPC) 109 % of control | dose: 150.0 mg/kg/injection, schedule: Q01DX009 (ip), vehicle: Klucel (hydroxypropylcellulose) (HPC) 105 % of control and 111 % of control

OC(Cc1[nH]c2ccccc2c1C(O)(C(F)(F)F)C(F)(F)F)(C(F)(F)F)C(F)(F)F
inactive: [13] 101 % of control | [14] 110 % of control | [15] 94 % of control

COC1=C(OC)C(=O)C(C/C=C(\C)CCCC(C)CCCC(C)CCCC(C)C)=C(C)C1=O (configuration not stated)
inactive: [13] 94 % of control | [14] 95 % of control | [15] 94 % of control

CCC1NC(=O)C(NC(=O)c2ncccc2O)C(C)OC(=O)C(c2ccccc2)NC(=O)C2CC(=O)CCN2C(=O)C(Cc2ccccc2)N(C)C(=O)C2CCCN2C1=O (configuration not stated)
inactive: [11] 108 % of control | [12] 108 % of control

Cn1cnc([N+](=O)[O-])c1Sc1nc(N)nc2nc[nH]c12
active: dose: 5.0 mg/kg/injection, schedule: Q03DX003 (ip), vehicle: Klucel (hydroxypropylcellulose) (HPC) 153 % of control | dose: 10.0 mg/kg/injection, schedule: Q03DX003 (ip), vehicle: Klucel (hydroxypropylcellulose) (HPC) 160 % of control | dose: 20.0 mg/kg/injection, schedule: Q03DX003 (ip), vehicle: Klucel (hydroxypropylcellulose) (HPC) 154 % of control
inactive: dose: 10.0 mg/kg/injection, schedule: Q01DX007 (ip), vehicle: Klucel (hydroxypropylcellulose) (HPC) 122 % of control | dose: 20.0 mg/kg/injection, schedule: Q01DX007 (ip), vehicle: Klucel (hydroxypropylcellulose) (HPC) 117 % of control
